Results from patent US11299493B2, “Heterocyclic compounds and uses thereof” (NUVATION BIO INC., priority 2017, dated 2022).
Like-named read-outs stand apart in the source and are kept apart here.

Key:
[1] = tested on: A549 cells; test: Cytotoxicity assay (resazurin) in A549 cells; type: cell-based; conditions: Homo sapiens, A549, 96 hr, read-out: Cell Viability IC50 A549
Description: (§1) Cells were allowed to grow at 37° C. for 24 hr in 5% CO2 environment (culture conditions) in a Nuaire incubator (humidified). Serially diluted test compounds (100 μL) within the desired testing concentration ranges were added to the culture plate were further incubated in culture conditions for 72 hr and 96 hr for A427 and A549 respectively. The experiment was terminated at the designated incubation time by replacing the medium with 100 μL of 1 mM of resazurin (R7017; Sigma) prepared in respective culture medium, and the plates were further incubated in culture conditions for 4-6 hr. Fluorescence was recorded using a multimodal plate reader (Biotek Synergy Neo) at an excitation wavelength of 535 nm and emission wavelength of 590 nm to obtain relative fluorescence units. Data analysis was done by subtracting the background fluorescence (only medium blank) value from each reading and then normalizing with the vehicle control (DMSO treated cells) to obtain percent survival/proliferation. Percent survival was then subtracted by 100 to get the percent inhibition of proliferation which was used to calculate IC50 values.

[2] = biological target: WEE1 kinase enzyme (Homo sapiens (Human), UniProt P30291); test: WEE1 IC50 determination, LanthaScreen Terbium Labeled TR-FRET kinase assay; type: biochemical; conditions: WEE1 enzyme 1 nM, ATP 10 μM, 1 h
Chain of WEE1 kinase enzyme (P30291 whole entry): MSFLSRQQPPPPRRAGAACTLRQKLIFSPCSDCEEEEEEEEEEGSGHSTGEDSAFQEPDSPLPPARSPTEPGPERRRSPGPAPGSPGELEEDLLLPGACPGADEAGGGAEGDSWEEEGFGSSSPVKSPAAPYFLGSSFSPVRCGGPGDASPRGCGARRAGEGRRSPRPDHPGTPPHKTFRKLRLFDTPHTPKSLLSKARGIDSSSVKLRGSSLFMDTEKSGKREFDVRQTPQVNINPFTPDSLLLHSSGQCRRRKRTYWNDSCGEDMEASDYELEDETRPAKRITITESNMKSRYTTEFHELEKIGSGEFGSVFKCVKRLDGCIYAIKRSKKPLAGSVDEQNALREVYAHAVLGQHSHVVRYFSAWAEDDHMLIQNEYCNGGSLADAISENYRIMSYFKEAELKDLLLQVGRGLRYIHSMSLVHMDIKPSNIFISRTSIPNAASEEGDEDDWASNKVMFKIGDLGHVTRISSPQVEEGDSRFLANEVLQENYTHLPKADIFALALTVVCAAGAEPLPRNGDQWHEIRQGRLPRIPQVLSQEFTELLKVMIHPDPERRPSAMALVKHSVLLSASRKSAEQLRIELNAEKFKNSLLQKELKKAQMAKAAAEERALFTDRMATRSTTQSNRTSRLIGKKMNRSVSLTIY
Description: IC50 values of compounds against WEE1 kinase enzyme were determined by LanthaScreen™ Terbium Labeled TR-FRET assay. […] After 1 h, […] stop solution containing Terbium labeled antibody (4 nM) (#PV3529, Invitrogen, Life Technologies Grand Island, N.Y.) and EDTA (#E5134, Sigma, St-Louis, Mo.) (20 mM) in TR-FRET dilution buffer (#PV3574, Invitrogen, Life Technologies Grand Island, N.Y.) was added. Readings were taken in a Synergy Neo Plate reader (BioTek, Winooski) at single excitation of 340 nm and Dual emission at 495 nm and 520 nm respectively.
The % activity of test samples was calculated as (Sample−Min)*100/(Max−Min). [Max: DMSO control, complete reaction with enzyme & DMSO and Min: No enzyme & DMSO].

[3] = tested on: A427 cells; test: Cytotoxicity assay (resazurin) in A427 cells; type: cell-based; conditions: read-out: Cell Viability IC50 A427
Description: as §1

[4] = Homo sapiens, A-427, 72 h, A427, 72 hr

## CC(C)n1c(=O)c2cnc(Nc3ccc4c(c3)CNCC4)nc2n1-c1cccc(C(C)(C)O)n1 [Example 1.10]
[1]
  IC50: 510 nM
[2]
  IC50: 2 nM
[3]; [4]
  IC50: 340 nM

## C=CCn1c(=O)c2cnc(Nc3ccc4c(c3)CN(C)CC4)nc2n1-c1cccc(C(C)(C)O)n1 [Example 1.9]
[1]
  IC50: 520 nM
[2]
  IC50: 1 nM

## CC(C)(O)c1cccc(-n2c3nc(Nc4ccc5c(c4)CNCC5)ncc3c(=O)n2CC2CC2)n1 [Example 1.11]
[1]
  IC50: 1180 nM
[2]
  IC50: 2 nM
[3]; [4]
  IC50: 430 nM

## CCCn1c(=O)c2cnc(Nc3ccc4c(c3)CNCC4)nc2n1-c1cccc(C(C)(C)O)n1 [Example 1.15]
[1]
  IC50: 1200 nM
[2]
  IC50: 1.5 nM
[3]; [4]
  IC50: 560 nM

## CCn1c(=O)c2cnc(Nc3ccc4c(c3)CNCC4(C)C)nc2n1-c1cccc(C(C)(C)O)n1 [Example 1.13]
[1]
  IC50: 895 nM
[2]
  IC50: 1.5 nM
[3]; [4]
  IC50: 1000 nM

## C=CCn1c(=O)c2cnc(Nc3ccc4c(c3)CCNC4)nc2n1-c1cccc(C(C)(C)O)n1 [Example 1.8]
[1]
  IC50: 545 nM
[2]
  IC50: 1 nM

## CC(C)n1c(=O)c2cnc(Nc3ccc4c(c3)CNCC4)nc2n1-c1cccc(C(C)(C)F)n1 [Example 1.139]
[2]
  IC50: 4 nM
[3]; [4]
  IC50: 355 nM

## CCn1c(=O)c2cnc(Nc3ccc4c(c3)CN(CC(=O)N(C)C)CC4)nc2n1-c1cccc(C(C)(C)O)n1 [Example 1.129]
[2]
  IC50: 6 nM
[3]; [4]
  IC50: 865 nM

## CCn1c(=O)c2cnc(Nc3ccc4c(c3)CNC4)nc2n1-c1cccc(C(C)(C)O)n1 [Example 1.132]
[2]
  IC50: 4 nM
[3]; Homo sapiens, A-427, A427, 72 hr
  IC50: 1680 nM

## CC(C)(C)c1cccc(-n2c3nc(Nc4ccc5c(c4)CCNC5)ncc3c(=O)n2C2CC2)n1 [Example 1.147]
[2]
  IC50: 7 nM
[3]; A427, 72 hr
  IC50: 370 nM

## CCn1c(=O)c2cnc(Nc3ccc4c(c3)CNCC4)nc2n1-c1cccc(C(F)(F)F)n1 [Example 1.41]
[2]
  IC50: 44 nM
[3]; [4]
  IC50: 5120 nM

## CC(C)(C)c1cc(-n2c3nc(Nc4ccc5c(c4)CCNC5)ncc3c(=O)n2C2CC2)ccn1 [Example 1.159]
[2]
  IC50: 30 nM
[3]; [4]
  IC50: 3320 nM

## CCn1c(=O)c2cnc(Nc3ccc4c(c3)CNCC4)nc2n1-c1ccccn1 [Example 1.130]
[2]
  IC50: 18 nM
[3]; [4]
  IC50: 9070 nM

## CC(C)n1c(=O)c2cnc(Nc3ccc4c(c3)CNCC4(C)C)nc2n1-c1ccn(C2CC2)n1 [Example 2.646]
[2]
  IC50: 15 nM
[3]; [4]
  IC50: 4370 nM

## CC(C)n1c(=O)c2cnc(Nc3ccc4c(c3)CNCC4)nc2n1-c1cccc(C(C)(C)C)c1 [Example 1.156]
[2]
  IC50: 1 nM
[3]; [4]
  IC50: 1770 nM

## CC(C)n1c(=O)c2cnc(Nc3ccc4c(c3)CCNC4(C)C)nc2n1-c1ccnc(C(C)(C)C)c1 [Example 1.176]
[2]
  IC50: 8 nM
[3]; [4]
  IC50: 595 nM

## CCn1c(=O)c2cnc(Nc3cnc4c(c3)CNCC4)nc2n1-c1cccc(C(C)(C)C)n1 [Example 1.141]
[2]
  IC50: 24 nM
[3]; [4]
  IC50: 2970 nM

## CC(C)n1c(=O)c2cnc(Nc3ccc4c(c3)CCNC4)nc2n1-c1ccnc(N(C)C)c1 [Example 1.172]
[2]
  IC50: 12 nM
[3]; [4]
  IC50: 1350 nM

## CC(C)n1c(=O)c2cnc(Nc3ccc4c(c3)CNCC4)nc2n1-c1ccc(F)cn1 [Example 2.291]
[2]
  IC50: 46 nM
[3]; [4]
  IC50: 7990 nM

## CCn1c(=O)c2cnc(Nc3ccc4c(c3)CCNC4)nc2n1-c1cccc(C(C)(C)C)n1 [Example 1.131]
[2]
  IC50: 0.6 nM
[3]; [4]
  IC50: 285 nM

## CCn1c(=O)c2cnc(Nc3ccc4c(c3)CCNC4)nc2n1-c1cccc(OC)n1 [Example 1.23]
[2]
  IC50: 40 nM
[3]; [4]
  IC50: 3210 nM

## CC(C)n1c(=O)c2cnc(Nc3ccc4c(c3)CCNC4)nc2n1-c1ccnc(N(C)S(C)(=O)=O)c1 [Example 1.177]
[2]
  IC50: 12 nM
[3]; [4]
  IC50: 1970 nM

## CC(C)n1c(=O)c2cnc(Nc3ccc4c(c3)CCNC4)nc2n1-c1cccc(C(C)(C)O)n1 [Example 1.69]
[2]
  IC50: 11 nM
[3]; [4]
  IC50: 485 nM

## CC(C)(O)c1cccc(-n2c3nc(Nc4ccc5c(c4)CNCC5)ncc3c(=O)n2C2CC2)n1 [Example 1.17]
[1]
  IC50: 9060 nM
[2]
  IC50: 9.5 nM
[3]; [4]
  IC50: 2320 nM

## C=CCn1c(=O)c2cnc(Nc3ccc4c(c3)CNCC4)nc2n1-c1ccnc(C(C)(C)C)c1 [Example 1.158]
[2]
  IC50: 4 nM
[3]; [4]
  IC50: 200 nM

## CCn1c(=O)c2cnc(Nc3ccc4c(c3)CN(C(=O)CO)CC4(C)C)nc2n1-c1cccc(C(C)(C)O)n1 [Example 1.14]
[1]
  IC50: 1620 nM
[2]
  IC50: 1 nM

## CC(C)(C)c1cc(-n2c3nc(Nc4ccc5c(c4)CNCC5)ncc3c(=O)n2CC(F)(F)F)ccn1 [Example 1.174]
[2]
  IC50: 108 nM
[3]; [4]
  IC50: 4000 nM

## CC(C)n1c(=O)c2cnc(Nc3ccc4c(c3)CC(N(C)C)C4)nc2n1-c1ccnc(C(C)(C)C)c1 (stereo not shown) [Example 1.164]
[2]
  IC50: 8 nM
[3]; [4]
  IC50: 485 nM

## CC(C)n1c(=O)c2cnc(Nc3ccc4c(c3)CCNC4)nc2n1-c1cccc(C(C)(C)C#N)n1 [Example 3.036]
[2]
  IC50: 5 nM
[3]; [4]
  IC50: 250 nM

## CC(C)n1c(=O)c2cnc(Nc3ccc4c(c3)CCNC4)nc2n1-c1cc(C(C)(C)C)ccn1 [Example 2.288]
[2]
  IC50: 217 nM
[3]; [4]
  IC50: 2580 nM

## COC(=O)N1CCc2cc(Nc3ncc4c(=O)n(C(C)C)n(-c5ccnc(C(C)(C)C)c5)c4n3)ccc2C1 [Example 1.173]
[2]
  IC50: 343 nM
[3]; [4]
  IC50: 2330 nM

## CC(C)n1c(=O)c2cnc(Nc3ccc4c(c3)CCNC4)nc2n1-c1ccsc1 [Example 2.647]
[2]
  IC50: 10 nM
[3]; [4]
  IC50: 2650 nM

## CC(C)n1c(=O)c2cnc(Nc3ccc4c(c3)CCNC4)nc2n1-c1ccn(C)n1 [Example 2.289]
[2]
  IC50: 49 nM
[3]; [4]
  IC50: 8760 nM

## COC(C)(C)c1cc(-n2c3nc(Nc4ccc5c(c4)CCNC5)ncc3c(=O)n2C(C)C)ccn1 [Example 2.293]
[2]
  IC50: > 3650 nM
[3]; [4]
  IC50: > 30000 nM

## CC(C)n1c(=O)c2cnc(Nc3ccc4c(c3)CC(N(C)C)CC4)nc2n1-c1ccnc(C(C)(C)C)c1 (stereo not shown) [Example 1.171]
[2]
  IC50: 6 nM
[3]; [4]
  IC50: 735 nM

## CCn1c(=O)c2cnc(Nc3ccc4c(c3)CNCC4)nc2n1-c1cccc(N2CCCC2=O)n1 [Example 1.31]
[2]
  IC50: 5 nM
[3]; [4]
  IC50: 1320 nM

## CC(C)(C)c1cc(-n2c3nc(Nc4ccc5c(c4)CNCC5)ncc3c(=O)n2C2CC2)ccn1 [Example 1.160]
[2]
  IC50: 30 nM
[3]; [4]
  IC50: 3980 nM

## CCn1c(=O)c2cnc(Nc3ccc4c(c3)CNCC43CC3)nc2n1-c1cccc(C(C)(C)O)n1 [Example 1.70]
[2]
  IC50: 15 nM
[3]; [4]
  IC50: 640 nM

## CCn1c(=O)c2cnc(Nc3ccc4c(c3)CC(N(C)C)C4)nc2n1-c1cccc(C(C)(C)O)n1 (stereo not shown) [Example 1.133]
[2]
  IC50: 6 nM
[3]; [4]
  IC50: 583 nM

## CC(C)n1c(=O)c2cnc(Nc3ccc4c(c3)CCNC4)nc2n1-c1ccnc(C(C)(C)F)c1 [Example 1.163]
[2]
  IC50: 15 nM
[3]; [4]
  IC50: 720 nM
